Assay results: ChEMBL document CHEMBL6127011, “Design, synthesis, and evaluation of benzodioxolane compounds for antitumor activity” (Bioorg Med Chem Lett, 2024)
pIC50: −log10 of the molar value. Active and inactive are the calls of the source. The rule behind the calls is not given here.

Legend:
[1] = (§1) Cytotoxicity against human HEK293T cells by MTT assay; assay type: toxicity, cell-based, HEK-293T; conditions: human, HEK293T cells
HeLa [2] = assay: Inhibition of colony formation in human HeLa cells at 10 uM incubated for 24 hrs; assay type: functional
HeLa [3] = assay: Inhibition of cell migration in human HeLa cells assessed as migration rate at 10 uM incubated for 24 hrs by transwell assay; values are per cent of control
MDA-MB-231 = assay: Antiproliferative activity against human MDA-MB-231 cells by MTT assay; assay type: functional, cell-based
HeLa [4] = assay: Inhibition of cell adhesion in human HeLa cells at 10 uM; assay type: functional
[5] = Inhibition of tumor angiogenesis in human HeLa cells xenografted in chick embryo chorioallantoic membrane at 10 uM incubated for 24 hrs; values are per cent of control
HeLa [6] = assay: Antiproliferative activity against human HeLa cells by MTT assay; assay type: functional, cell-based
HEK-293T = assay: as §1; assay type: toxicity, cell-based; conditions: hek-293t; for Activity: human
HeLa [7] = assay: Antitumor activity against human HeLa cells xenografted in chicken embryo chorioallantoic membrane assessed as reduction in tumor weight at 5 uM (reference value: 39 +/- 1.41 mg); assay type: functional
HeLa [8] = assay: Antitumor activity against human HeLa cells xenografted in chicken embryo chorioallantoic membrane assessed as reduction in tumor weight at 10 uM (reference value: 39 +/- 1.41 mg); assay type: functional
[9] = Inhibition of tumor angiogenesis in human HeLa cells xenografted in chick embryo chorioallantoic membrane at 5 uM incubated for 24 hrs; values are per cent of control
[10] = Inhibition of tumor angiogenesis in human HeLa cells xenografted in chick embryo chorioallantoic membrane at 2.5 uM incubated for 24 hrs; values are per cent of control
HeLa [11] = assay: Inhibition of colony formation in human HeLa cells incubated for 24 hrs; assay type: functional, cell-based; conditions: dose 2.5-10 µM
HeLa [12] = assay: Antitumor activity against human HeLa cells xenografted in chicken embryo chorioallantoic membrane assessed as reduction in tumor weight at 2.5 uM (reference value: 39 +/- 1.41 mg); assay type: functional
HeLa [13] = assay: Inhibition of cell adhesion in human HeLa cells; assay type: functional, cell-based
HeLa [14] = assay: Inhibition of cell migration in human HeLa cells assessed as migration rate at 5 uM incubated for 24 hrs by transwell assay; values are per cent of control
HeLa [15] = assay: Inhibition of cell migration in human HeLa cells assessed as migration rate at 2.5 uM incubated for 24 hrs by transwell assay; values are per cent of control

Structure (SMILES) | pIC50 [1] | pIC50 (MDA-MB-231) | pIC50 (HeLa [6]) | other results
O=c1[nH]cc(F)c(=O)[nH]1 [FLUOROURACIL] | 5.49 | 4.74 | 4.35 | inhibition at 10 µM (HeLa [2]): 52.1%; migration rate (% of control) at 10 µM (HeLa [3]): 47.3%; inhibition at 10 µM (HeLa [4]): 55.8%; angiogenesis (% of control) at 10 µM [5]: 78.8%
Cc1cn(-c2cc(NC(=O)/C=C/c3ccc4c(c3)OCO4)cc(C(F)(F)F)c2)cn1 | 4.73 | 4.54 | 5.06 | 
O=C1CCC(N2Cc3c(NC(=O)Cc4ccc5c(c4)OCO5)cccc3C2=O)C(=O)N1 (configuration not stated) |  |  | 4.20 | pIC50 (HEK-293T): 2.84; Activity (MDA-MB-231): inactive
COc1cc2c(cc1OC)C(=O)C(CC1CCN(C(=O)/C=C/c3cc4c(cc3Br)OCO4)CC1)C2 (configuration not stated) |  | 4.82 | 4.53 | Activity (HEK-293T): Non-Toxic
O=C(/C=C/C=C/c1ccc2c(c1)OCO2)N1CCCCC1 [PIPERINE] | 4.37 | 3.62 | 4.35 | 
COc1cc2c(cc1OC)C(=O)C(CC1CCN(C(=O)c3ccc4c(c3)OC(F)(F)O4)CC1)C2 (configuration not stated) |  | 4.09 | 4.42 | Activity (HEK-293T): Non-Toxic
Cc1cn(-c2cc(NC(=O)c3ccc4c(c3)OCO4)cc(C(F)(F)F)c2)cn1 | 3.32 | 3.59 | 4.30 | 
COc1cc2c(cc1OC)C(=O)C(CC1CCN(C(=O)c3ccc4c(c3)OCO4)CC1)C2 (configuration not stated) | 3.39 | 4.09 | 4.60 | 
O=C1CCC(N2Cc3c(NC(=O)c4ccc5c(c4)OCO5)cccc3C2=O)C(=O)N1 (configuration not stated) | 3.20 | 3.55 | 4.94 | 
O=C(/C=C/C=C/c1ccc2c(c1)OCO2)Nc1cccc2c1CN(C1CCC(=O)NC1=O)C2=O (configuration not stated) | 4.09 | 4.09 | 4.30 | 
O=C(/C=C/c1ccc2c(c1)OCO2)Nc1cccc2c1CN(C1CCC(=O)NC1=O)C2=O (configuration not stated) |  |  | 4.43 | pIC50 (HEK-293T): 2.84; Activity (MDA-MB-231): inactive
Cc1cn(-c2cc(NC(=O)Cc3ccc4c(c3)OCO4)cc(C(F)(F)F)c2)cn1 | 4.72 | 4.33 | 5.11 | 
Cc1cn(-c2cc(NC(=O)/C=C/C=C/c3ccc4c(c3)OCO4)cc(C(F)(F)F)c2)cn1 | 3.98 | 4.64 | 4.99 | Activity (HeLa [7]): 13.5 mg; inhibition at 10 µM (HeLa [2]): 25.1%; migration rate (% of control) at 10 µM (HeLa [3]): 27.6%; Activity (HeLa [8]): 7.5 mg; inhibition at 10 µM (HeLa [4]): 16.7%; angiogenesis (% of control) at 5 µM [9]: 78.4%; angiogenesis (% of control) at 2.5 µM [10]: 93.2%; inhibition (HeLa [11]): Dose-Dependent Effect; angiogenesis (% of control) at 10 µM [5]: 61.9%; Activity (HeLa [12]): 28.5 mg; inhibition (HeLa [13]): Dose-Dependent Effect; migration rate (% of control) at 5 µM (HeLa [14]): 50.4%; migration rate (% of control) at 2.5 µM (HeLa [15]): 80.3%
COc1cc2c(cc1OC)C(=O)C(CC1CCN(C(=O)/C=C/c3ccc4c(c3)OCO4)CC1)C2 (configuration not stated) | 5.10 | 3.98 | 4.73 | 
COc1cc2c(cc1OC)C(=O)C(CC1CCN(C(=O)/C=C/C=C/c3ccc4c(c3)OCO4)CC1)C2 (configuration not stated) | 4.21 | 3.91 | 4.49 | 
